Assay results as given in PubChem BioAssay (NCI).
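Method: 48-hour compound exposure of cells in 96-well plates, five concentrations, linear interpolation of endpoints. The concentration for full growth arrest is given as TGI.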

Assays:
Test in all cases: DTP human tumour cell line panel, 48 h
COLO 205 colon = tested on: COLO 205 colon
OVCAR-3 ovarian = tested on: OVCAR-3 ovarian
PC-3 prostate = tested on: PC-3 prostate
K-562 leukemia = tested on: K-562 leukemia
SF-539 CNS = tested on: SF-539 CNS
SK-MEL-2 melanoma = tested on: SK-MEL-2 melanoma
MDA-MB-435 = tested on: MDA-MB-435
SNB-19 CNS = tested on: SNB-19 CNS
BT-549 breast = tested on: BT-549 breast
RPMI-8226 leukemia = tested on: RPMI-8226 leukemia
SW-620 colon = tested on: SW-620 colon
TK-10 renal = tested on: TK-10 renal
HOP-62 NSCLC = tested on: HOP-62 NSCLC
ACHN renal = tested on: ACHN renal
LOX IMVI melanoma = tested on: LOX IMVI melanoma
OVCAR-5 ovarian = tested on: OVCAR-5 ovarian
CCRF-CEM leukemia = tested on: CCRF-CEM leukemia
RXF 393 renal = tested on: RXF 393 renal
NCI-H460 lung = tested on: NCI-H460 lung
OVCAR-4 ovarian = tested on: OVCAR-4 ovarian
SNB-75 CNS = tested on: SNB-75 CNS
SK-MEL-28 melanoma = tested on: SK-MEL-28 melanoma
A549 NSCLC = tested on: A549 NSCLC
MOLT-4 leukemia = tested on: MOLT-4 leukemia
KM12 colon = tested on: KM12 colon
U251 CNS = tested on: U251 CNS
SK-OV-3 ovarian = tested on: SK-OV-3 ovarian
UO-31 renal = tested on: UO-31 renal
UACC-62 melanoma = tested on: UACC-62 melanoma
A498 renal = tested on: A498 renal
UACC-257 melanoma = tested on: UACC-257 melanoma
T-47D breast = tested on: T-47D breast
MDA-MB-231 breast = tested on: MDA-MB-231 breast
HCT-116 colon = tested on: HCT-116 colon
HOP-92 NSCLC = tested on: HOP-92 NSCLC
NCI-H226 lung = tested on: NCI-H226 lung
DU-145 prostate = tested on: DU-145 prostate
SF-268 CNS = tested on: SF-268 CNS
NCI-H23 lung = tested on: NCI-H23 lung
NCI/ADR-RES ovarian = tested on: NCI/ADR-RES ovarian
786-0 renal = tested on: 786-0 renal
HCC-2998 colon = tested on: HCC-2998 colon
M14 melanoma = tested on: M14 melanoma
EKVX NSCLC = tested on: EKVX NSCLC
SK-MEL-5 melanoma = tested on: SK-MEL-5 melanoma
CAKI-1 renal = tested on: CAKI-1 renal
HCT-15 colon = tested on: HCT-15 colon
MCF7 breast = tested on: MCF7 breast
SF-295 CNS = tested on: SF-295 CNS

Measured: TGI

COc1ccc(C2c3c(n(C)c(=O)n(C)c3=O)OC(N(C)C)(N(C)C)C2(F)F)cc1 (centres undefined)
> 100 µM: all assays above
